Experimental data reported in patent publication US5863915A, “Substituted 4-arylbutyric acid derivatives as matrix metalloprotease” (Bayer Corporation, priority 1997, dated 1999).

Tests used:
MMP-3, MMP-9 and MMP-2 = assay: MMP profiling assay, overall comparison of the three MMPs (Table 5 data); format: biochemical, human; details: for MMP inhibition activity in words: substituent size on the 4-phenyl ring; for selectivity of activity among the MMP's, in words: MMP-2 and MMP-9 vs MMP-3
Source text: MMP Microfluorometric Profiling Assay
IC50 Determination in Microfluorometric Assay
((Control values-Treated Values)/Control Values)×100

[1] = tested on: human ovarian carcinoma xenografts; details: mouse, in vivo; cited from earlier work
human colon tumor = details: given intraperitoneally; orthotopic model in nude mice; cited from earlier work

Row | Compound | MMP inhibition activity in words (MMP-3, MMP-9 and MMP-2) | further results
1 | O=C(CC(CCN1C(=O)c2ccccc2C1=O)C(=O)O)c1ccc(Br)cc1 (centres unmarked) [Compound B, 4-(4-bromophenyl)-4-oxo-2-(2-phthalimidoethyl) butyric acid] | activities are low | –
2 | O=C(CC(CCN1C(=O)c2ccccc2C1=O)C(=O)O)c1ccccc1 (centres unmarked) [Compound D, 4-phenyl-4-oxo-2-(2-phthalimidoethyl)butyric acid] | activities are low | –
3 | CCCCCCCCCCCCCCOc1ccc(C(=O)CC(CCN2C(=O)c3ccccc3C2=O)C(=O)O)cc1 (centres unmarked) [Compound F, 4-(4-tetradecyloxyphenyl)-4-oxo-2-(2-phthalimidoethyl)butyric acid] | activity is also low | –
4 | COc1ccc(C(=O)CC(CCN2C(=O)c3ccccc3C2=O)C(=O)O)cc1 (centres unmarked) [Compound G, 4-(4-methoxyphenyl)-4-oxo-2-(2-phthalimidoethyl)butyric acid] | activities are low | –
5 | CCCCCCCOc1ccc(C(=O)CC(CCN2C(=O)c3ccccc3C2=O)C(=O)O)cc1 (centres unmarked) [Example 10, 4-(4-heptyloxyphenyl)4-oxo-2-(2-phthalimidoethyl) butyric acid] | – | selectivity of activity among the MMP's, in words (MMP-3, MMP-9 and MMP-2): broad high activity
6 | CCCCCCOc1ccc(C(=O)CC(CCN2C(=O)c3ccccc3C2=O)C(=O)O)cc1 (centres unmarked) [Example 11, 4-(4-hexyloxyphenyl)-4-oxo-2-(2-phthalimidoethyl) butyric acid] | – | selectivity of activity among the MMP's, in words (MMP-3, MMP-9 and MMP-2): broad high activity
7 | CNC(=O)[C@H](Cc1ccccc1)NC(=O)[C@H](CC(C)C)[C@H](CSc1cccs1)C(=O)NO [batimastat] | – | survival of mice bearing human ovarian carcinoma xenografts [1]: prolongs the survival of mice; human colon tumor growth and spread (human colon tumor): inhibits human colon tumor growth and spread
